From patent publication US20080107623A1, “Inhibitors of Hepatitis C Virus” (Bristol-Myers Squibb Company, priority 2006, published 2008)

How the values were obtained:
[1] = molecular target: T1, HCV NS3/4A protease complex, BMS strain (UniProt P27958, species not given/STRAIN_BMS); experiment: FRET peptide assay to monitor HCV NS3/4A proteolytic activity (BMS strain); format: biochemical, HCV genotype 1a; details: NS3/4A BMS strain; read-out: IC50 Activity Range
T1 construct: said of H77 and J4L6S, not expressly of BMS; These are given for the H77 and J4L6S constructs only
T1 sequence (P27958 1027-1657, change not shown, one chain of several): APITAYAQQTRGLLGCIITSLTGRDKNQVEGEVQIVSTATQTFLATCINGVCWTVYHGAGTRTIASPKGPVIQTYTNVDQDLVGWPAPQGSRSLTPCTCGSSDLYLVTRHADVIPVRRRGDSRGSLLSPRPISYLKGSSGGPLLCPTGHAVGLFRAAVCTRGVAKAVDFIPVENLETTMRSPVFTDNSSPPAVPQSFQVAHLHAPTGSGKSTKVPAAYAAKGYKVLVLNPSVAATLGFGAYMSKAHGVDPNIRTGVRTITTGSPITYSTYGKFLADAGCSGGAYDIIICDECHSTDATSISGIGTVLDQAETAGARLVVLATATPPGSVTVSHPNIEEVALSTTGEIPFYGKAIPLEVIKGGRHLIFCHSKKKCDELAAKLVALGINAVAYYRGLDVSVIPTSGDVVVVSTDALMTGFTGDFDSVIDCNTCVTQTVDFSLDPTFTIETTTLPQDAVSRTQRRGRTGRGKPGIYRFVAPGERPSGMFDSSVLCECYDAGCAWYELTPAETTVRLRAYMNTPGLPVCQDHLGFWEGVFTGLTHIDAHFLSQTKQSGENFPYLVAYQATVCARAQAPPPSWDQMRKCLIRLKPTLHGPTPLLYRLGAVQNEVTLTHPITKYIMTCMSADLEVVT
Source text: HCV NS3 protease complexes, derived from the BMS strain, H77 strain or J4L6S strain, were generated, as described below. These purified recombinant proteins were generated for use in a homogeneous assay (see below) to provide an indication of how effective compounds of the present disclosure would be in inhibiting HCV NS3 proteolytic activity.
Serum from an HCV-infected patient was obtained from Dr. T. Wright, San Francisco Hospital. An engineered full-length cDNA (compliment deoxyribonucleic acid) template of the HCV genome (BMS strain) was constructed from DNA fragments obtained by reverse transcription-PCR (RT-PCR) of serum RNA (ribonucleic acid) and using primers selected on the basis of homology between other genotype 1a strains. From the determination of the entire genome sequence, a genotype 1a was assigned to the HCV isolate according to the classification of Simmonds et al. (See P Simmonds, K A Rose, S Graham, S W Chan, F McOmish, B C Dow, E A Follett, P L Yap and H Marsden, J. Clin. Microbiol., 31(6), 1493-1503 (1993)). […] The infectious clones, H77 (1a genotype) and J4L6S (1b genotype) were obtained from R. Purcell (NIH) and the sequences are published in Genbank (AAB67036, see Yanagi, M., Purcell, R. H., Emerson, S. U. and Bukh, J. Proc. Natl. Acad. Sci. U.S.A. 94(16),8738-8743 (1997); AF054247, see Yanagi, M., St Claire, M., Shapiro, M., Emerson, S. U., Purcell, R. H. and Bukh, J, Virology 244 (1), 161-172. (1998)).
NS3/4A protease complex-containing fractions were pooled and loaded on a desalting column Superdex-S200 pre-equilibrated with buffer D (25 mM HEPES, pH 7.5, 20% glycerol, 300 mM NaCl, 0.2% Triton X-100, 10 mM βME). Sample was loaded at a flow rate of 1 mL/min. NS3/4A protease complex-containing fractions were pooled and concentrated to approximately 0.5 mg/ml. The purity of the NS3/4A protease complexes, derived from the BMS, H77 and J4L6S strains, were judged to be greater than 90% by SDS-PAGE and mass spectrometry analyses. The enzyme was stored at −80° C., thawed on ice and diluted prior to use in assay buffer.
The purpose of this in vitro assay was to measure the inhibition of HCV NS3 protease complexes, derived from the BMS strain, H77 strain or J4L6S strain, as described above, by compounds of the present disclosure. This assay provides an indication of how effective compounds of the present disclosure would be in inhibiting HCV NS3 proteolytic activity.
In order to monitor HCV NS3/4A protease activity, an NS3/4A peptide substrate was used. The substrate was RET SI (Resonance Energy Transfer Depsipeptide Substrate; AnaSpec, Inc. cat #22991) (FRET peptide), described by Taliani et al. in Anal. Biochem. 240(2):60-67 (1996). […] The peptide also contains a fluorescence donor, EDANS, near one end of the peptide and an acceptor, DABCYL, near the other end. The fluorescence of the peptide is quenched by […] resonance energy transfer (RET) between the donor and the acceptor, but as the NS3 protease cleaves the peptide the products are released from RET quenching and the fluorescence of the donor becomes apparent.
The peptide substrate was incubated with one of the three recombinant NS3/4A protease complexes, in the absence or presence of a compound of the present disclosure. The inhibitory effects of a compound was determined by monitoring the formation of fluorescent reaction product in real time using a Cytofluor Series 4000. […]

[2] = system: HCV replicon in HUH-7 cells; experiment: HCV replicon FRET assay; format: cell-based, HCV strain 1b; details: Hepatitis C virus, Huh-7; HCV replicon; which replicon assay not stated; read-out: EC50 Activity Range
Source text: An HCV replicon whole cell system was established as described by Lohmann V, Korner F, Koch J, Herian U, Theilmann L, Bartenschlager R., Science 285(5424):110-3 (1999). This system enabled us to evaluate the effects of our HCV Protease compounds on HCV RNA replication. Briefly, using the HCV strain 1b sequence described in the Lohmann paper (Assession number: AJ238799), an HCV cDNA was synthesized by Operon Technologies, Inc. (Alameda, Calif.), and the full-length replicon was then assembled in plasmid pGem9zf(+) (Promega, Madison, Wis.) using standard molecular biology techniques. The replicon consists of (i) the HCV 5′ UTR fused to the first 12 amino acids of the capsid protein, (ii) the neomycin phosphotransferase gene (neo), (iii) the IRES from encephalomyocarditis virus (EMCV), and (iv) HCV NS3 to NS5B genes and the HCV 3′ UTR. Plasmid DNAs were linearized with ScaI and RNA transcripts were synthesized in vitro using the T7 MegaScript transcription kit (Ambion, Austin, Tex.) according to manufacturer's directions. In vitro transcripts of the cDNA were transfected into the human hepatoma cell line, HUH-7. […] Resulting cell lines were characterized for positive and negative strand RNA production and protein production over time.
The HCV replicon FRET assay was developed to monitor the inhibitory effects of compounds described in the disclosure on HCV viral replication. HUH-7 cells, constitutively expressing the HCV replicon, were grown in Dulbecco's Modified Eagle Media (DMEM) (Gibco-BRL) containing 10% Fetal calf serum (FCS) (Sigma) and 1 mg/ml G418 (Gibco-BRL). Cells were seeded the night before (1.5×10^4 cells/well) in 96-well tissue-culture sterile plates. Compound and no compound controls were prepared in DMEM containing 4% FCS, 1:100 Penicillin/Streptomysin (Gibco-BRL), 1:100 L-glutamine and 5% DMSO in the dilution plate (0.5% DMSO final concentration in the assay). Compound/DMSO mixes were added to the cells and incubated for 4 days at 37° C. After 4 days, cells were first assessed for cytotoxicity using alamar Blue (Trek Diagnotstic Systems) for a CC50 reading. The toxicity of compound (CC50) was determined by adding 1/10th volume of alamar Blue to the media incubating the cells. After 4 hours, the fluorescence signal from each well was read, with an excitation wavelength at 530 nm and an emission wavelength of 580 nm, using the Cytofluor Series 4000 (Perspective Biosystems). Plates were then rinsed thoroughly with Phosphate-Buffered Saline (PBS) (3 times 150 μl). The cells were lysed with 25 μl of a lysis assay reagent containing an HCV protease substrate (5× cell Luciferase cell culture lysis reagent (Promega #E153A) diluted to 1× with distilled water, NaCl added to 150 mM final, the FRET peptide substrate (as described for the enzyme assay above) diluted to 10 μM final from a 2 mM stock in 100% DMSO. […]. The plate was then placed into the Cytofluor 4000 instrument which had been set to 340 nm excitation/490 nm emission, automatic mode for 21 cycles and the plate read in a kinetic mode. EC50 determinations were carried out as described for the IC50 determinations.

SMILES | IC50 [1] | EC50 [2] | melting point
CC(C)(C)OC(=O)N[C@H]1CCCCC/C=C\[C@@H]2C[C@@]2(C(=O)NS(=O)(=O)C2CC2)NC(=O)[C@@H]2C[C@@H](Oc3ccccn3)CN2C1=O [Compound 1] | < 100 nM | 100 to 1000 nM | 
CC(C)(C)OC(=O)N[C@H]1CCCCC/C=C\[C@@H]2C[C@@]2(C(=O)NS(=O)(=O)C2CC2)NC(=O)[C@@H]2C[C@@H](Oc3ccc([N+](=O)[O-])cc3)CN2C1=O [Compound 2] | < 100 nM | > 1000 nM | 
CC(C)(C)OC(=O)N[C@H]1CCCOC/C=C\[C@@H]2C[C@@]2(C(=O)NS(=O)(=O)C2CC2)NC(=O)[C@@H]2C[C@@H](OCc3ccccc3)CN2C1=O [Compound 5, (1S,4R,6S,14S,18R,7-cis)-18-benzyloxy-14-tert-butoxycarbonylamino-4-cyclopropanesulfonylaminocarbonyl-2,15-dioxo-3,16-diaza-10-oxatricyclo[14.3.0.0^4,6]nonadec-7-ene] | < 100 nM | > 1000 nM | 147 to 149 °C
CC(C)(C)OC(=O)N[C@H]1CCCOC/C=C\[C@@H]2C[C@@]2(C(=O)NS(=O)(=O)C2CC2)NC(=O)[C@@H]2C[C@@H](OC(C)(C)C)CN2C1=O [Compound 6, (1S,4R,6S,14S,18R,7-cis)-18-tert-butoxy-14-tert-butoxycarbonylamino-4-cyclopropanesulfonylaminocarbonyl-2,15-dioxo-3,16-diaza-10-oxatricyclo[14.3.0.0^4,6]nonadec-7-ene] | 100 to 1000 nM | > 1000 nM | 
